Assay results taken from patent US7074789B2, “Kinase inhibitors” (Amgen Inc., priority 1999, dated 2006).
pIC50: −log10 of the molar value.

How the values were obtained:
Format in all cases: biochemical
Zap-70 = target: T1, Zap-70 (Homo sapiens, UniProt P43403); assay: Kinase inhibition assay (33P transfer), Zap-70; details: Table 3; read-out: Zap-1
T1 construct: Kinases are expressed as either kinase domains or full length constructs; made in house
T1 sequence (P43403 1-619): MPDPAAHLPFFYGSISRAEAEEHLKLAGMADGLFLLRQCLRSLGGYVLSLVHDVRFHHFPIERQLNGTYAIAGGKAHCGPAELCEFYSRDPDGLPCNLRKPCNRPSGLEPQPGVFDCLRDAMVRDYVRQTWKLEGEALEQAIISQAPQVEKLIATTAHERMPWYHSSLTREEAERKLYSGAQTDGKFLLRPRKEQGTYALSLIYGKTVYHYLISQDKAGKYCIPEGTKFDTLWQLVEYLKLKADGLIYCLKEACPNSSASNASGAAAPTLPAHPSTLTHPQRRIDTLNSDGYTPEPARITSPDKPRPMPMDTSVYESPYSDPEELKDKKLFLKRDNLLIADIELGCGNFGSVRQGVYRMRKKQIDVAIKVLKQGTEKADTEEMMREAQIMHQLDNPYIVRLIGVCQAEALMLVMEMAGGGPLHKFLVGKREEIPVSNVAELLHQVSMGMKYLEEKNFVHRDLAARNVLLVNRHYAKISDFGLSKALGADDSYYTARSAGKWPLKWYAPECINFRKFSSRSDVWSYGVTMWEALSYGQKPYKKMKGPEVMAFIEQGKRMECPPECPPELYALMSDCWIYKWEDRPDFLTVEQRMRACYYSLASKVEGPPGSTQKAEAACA
In short: (§1)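 33P-ATP transfer to coated synthetic polymer substrates; acid wash (0.5% H3PO4), scintillant, liquid scintillation count. Enzymes: His- or GST-fusion kinases from E. coli or High Five insect cells.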

Lyn = target: T2, Lyn (Homo sapiens, UniProt P07948); assay: Kinase inhibition assay (33P transfer), Lyn; details: Table 6, Lyn-1 kinase inhibition class
T2 construct: Kinases are expressed as either kinase domains or full length constructs; made in house
T2 sequence (P07948 whole entry, species assumed, the tested form may be a part): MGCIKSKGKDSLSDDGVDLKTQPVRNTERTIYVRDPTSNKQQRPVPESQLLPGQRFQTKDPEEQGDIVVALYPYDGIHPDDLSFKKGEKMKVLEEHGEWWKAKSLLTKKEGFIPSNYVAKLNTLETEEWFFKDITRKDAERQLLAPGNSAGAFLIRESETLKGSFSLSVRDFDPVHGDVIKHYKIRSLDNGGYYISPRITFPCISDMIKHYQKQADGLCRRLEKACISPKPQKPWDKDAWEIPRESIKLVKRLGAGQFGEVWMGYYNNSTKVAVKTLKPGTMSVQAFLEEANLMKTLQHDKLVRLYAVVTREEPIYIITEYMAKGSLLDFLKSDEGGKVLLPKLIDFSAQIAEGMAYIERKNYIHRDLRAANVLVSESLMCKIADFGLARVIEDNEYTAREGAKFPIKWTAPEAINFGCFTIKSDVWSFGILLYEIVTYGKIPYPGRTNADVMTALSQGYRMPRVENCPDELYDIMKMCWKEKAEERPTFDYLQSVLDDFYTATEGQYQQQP
In short: (§2)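 Kinase domains or full-length enzymes, GST- or polyHis-tagged, were expressed in E. coli or baculovirus High Five cells and affinity-purified. Transfer of 33PO4 from ATP onto plate-bound poly(Glu,Tyr) 4:1 or poly(Arg,Ser) 3:1 was counted by liquid scintillation after a 0.5% phosphoric acid wash. IC50 = concentration halving incorporation.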

Flt-1 = target: T3, Flt-1 (Homo sapiens, UniProt P17948); assay: Kinase inhibition assay (33P transfer), Flt-1
T3 construct: Kinases are expressed as either kinase domains or full length constructs; made in house
T3 sequence (P17948 27-1338, species assumed): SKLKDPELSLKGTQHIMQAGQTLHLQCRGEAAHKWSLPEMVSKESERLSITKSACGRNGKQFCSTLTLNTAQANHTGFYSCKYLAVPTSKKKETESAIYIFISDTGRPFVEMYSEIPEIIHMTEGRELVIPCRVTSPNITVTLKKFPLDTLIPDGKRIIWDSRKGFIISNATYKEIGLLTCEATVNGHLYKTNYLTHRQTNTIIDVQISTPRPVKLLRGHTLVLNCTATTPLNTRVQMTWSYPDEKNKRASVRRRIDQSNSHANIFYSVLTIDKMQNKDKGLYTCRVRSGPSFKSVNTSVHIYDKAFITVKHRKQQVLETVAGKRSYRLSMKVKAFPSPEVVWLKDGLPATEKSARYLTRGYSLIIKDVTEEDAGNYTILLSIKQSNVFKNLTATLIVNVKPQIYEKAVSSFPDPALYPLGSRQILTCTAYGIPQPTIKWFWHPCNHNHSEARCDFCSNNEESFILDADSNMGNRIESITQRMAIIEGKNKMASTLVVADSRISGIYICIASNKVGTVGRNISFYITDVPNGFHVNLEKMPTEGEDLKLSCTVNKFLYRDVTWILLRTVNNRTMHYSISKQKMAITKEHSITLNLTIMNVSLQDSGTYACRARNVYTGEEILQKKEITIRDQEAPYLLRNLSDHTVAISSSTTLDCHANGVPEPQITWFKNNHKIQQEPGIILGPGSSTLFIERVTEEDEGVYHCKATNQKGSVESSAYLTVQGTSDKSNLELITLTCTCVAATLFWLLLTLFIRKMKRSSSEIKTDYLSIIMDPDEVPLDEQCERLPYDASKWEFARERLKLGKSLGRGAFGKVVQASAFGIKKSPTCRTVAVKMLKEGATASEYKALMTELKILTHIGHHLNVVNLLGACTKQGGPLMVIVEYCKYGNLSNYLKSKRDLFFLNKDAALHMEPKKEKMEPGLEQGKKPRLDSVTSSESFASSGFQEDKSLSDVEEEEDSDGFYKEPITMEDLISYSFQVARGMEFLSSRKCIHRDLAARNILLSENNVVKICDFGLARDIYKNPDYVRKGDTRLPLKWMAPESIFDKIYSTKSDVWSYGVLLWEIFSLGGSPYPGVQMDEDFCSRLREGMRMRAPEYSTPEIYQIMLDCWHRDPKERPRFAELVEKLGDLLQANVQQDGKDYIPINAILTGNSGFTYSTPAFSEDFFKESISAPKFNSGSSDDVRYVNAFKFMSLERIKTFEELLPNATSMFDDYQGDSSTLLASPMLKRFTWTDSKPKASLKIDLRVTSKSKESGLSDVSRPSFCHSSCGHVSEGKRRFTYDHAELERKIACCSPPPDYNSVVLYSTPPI
In short: as §2

Kdr = target: T4, Kdr (Homo sapiens, UniProt P35968); assay: Kinase inhibition assay (33P transfer), Kdr; details: Table 3; read-out: KDR-1
T4 construct: Kinases are expressed as either kinase domains or full length constructs; made in house
T4 sequence (P35968 20-1356, species assumed): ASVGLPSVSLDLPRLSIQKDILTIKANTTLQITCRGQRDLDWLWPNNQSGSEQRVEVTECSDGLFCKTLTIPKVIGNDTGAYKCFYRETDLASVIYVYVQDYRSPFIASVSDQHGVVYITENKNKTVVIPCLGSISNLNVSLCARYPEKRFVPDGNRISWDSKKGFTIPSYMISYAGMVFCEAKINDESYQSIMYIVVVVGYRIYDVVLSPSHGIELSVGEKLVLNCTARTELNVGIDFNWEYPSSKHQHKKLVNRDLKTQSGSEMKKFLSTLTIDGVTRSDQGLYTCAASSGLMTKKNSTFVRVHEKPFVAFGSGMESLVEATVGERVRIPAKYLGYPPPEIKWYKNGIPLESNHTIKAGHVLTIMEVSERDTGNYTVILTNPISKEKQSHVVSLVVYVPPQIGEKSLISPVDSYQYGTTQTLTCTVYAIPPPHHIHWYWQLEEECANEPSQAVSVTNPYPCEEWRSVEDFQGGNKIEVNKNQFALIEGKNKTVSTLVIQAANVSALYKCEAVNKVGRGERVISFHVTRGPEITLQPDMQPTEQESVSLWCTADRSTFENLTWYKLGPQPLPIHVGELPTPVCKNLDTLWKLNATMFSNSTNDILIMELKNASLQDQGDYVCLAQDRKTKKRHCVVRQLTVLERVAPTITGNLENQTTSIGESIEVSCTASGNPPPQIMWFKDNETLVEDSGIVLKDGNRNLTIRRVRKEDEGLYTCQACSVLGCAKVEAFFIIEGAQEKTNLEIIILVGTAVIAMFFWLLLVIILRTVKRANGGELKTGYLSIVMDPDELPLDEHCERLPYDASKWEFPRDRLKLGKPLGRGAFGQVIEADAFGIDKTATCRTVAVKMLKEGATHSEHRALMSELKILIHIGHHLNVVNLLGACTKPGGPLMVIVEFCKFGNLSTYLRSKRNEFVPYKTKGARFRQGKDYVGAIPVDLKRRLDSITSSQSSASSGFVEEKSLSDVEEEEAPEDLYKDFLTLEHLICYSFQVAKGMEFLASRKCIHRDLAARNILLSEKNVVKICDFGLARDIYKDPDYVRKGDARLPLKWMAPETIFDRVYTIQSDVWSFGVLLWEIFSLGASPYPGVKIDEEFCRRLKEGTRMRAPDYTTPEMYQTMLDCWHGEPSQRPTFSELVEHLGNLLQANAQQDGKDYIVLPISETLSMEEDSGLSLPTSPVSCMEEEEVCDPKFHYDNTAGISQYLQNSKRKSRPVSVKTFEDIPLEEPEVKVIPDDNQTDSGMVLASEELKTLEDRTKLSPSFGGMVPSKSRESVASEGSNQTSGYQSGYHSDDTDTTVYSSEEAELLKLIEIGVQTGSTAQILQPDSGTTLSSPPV
In short: as §1

EPHB4 = target: T5, EPHB4 (Homo sapiens, UniProt P54760); assay: Kinase inhibition assay (33P transfer), EPHB4; details: read-out: EPHB4-1
T5 construct: Kinases are expressed as either kinase domains or full length constructs; made in house
T5 sequence (P54760 16-987): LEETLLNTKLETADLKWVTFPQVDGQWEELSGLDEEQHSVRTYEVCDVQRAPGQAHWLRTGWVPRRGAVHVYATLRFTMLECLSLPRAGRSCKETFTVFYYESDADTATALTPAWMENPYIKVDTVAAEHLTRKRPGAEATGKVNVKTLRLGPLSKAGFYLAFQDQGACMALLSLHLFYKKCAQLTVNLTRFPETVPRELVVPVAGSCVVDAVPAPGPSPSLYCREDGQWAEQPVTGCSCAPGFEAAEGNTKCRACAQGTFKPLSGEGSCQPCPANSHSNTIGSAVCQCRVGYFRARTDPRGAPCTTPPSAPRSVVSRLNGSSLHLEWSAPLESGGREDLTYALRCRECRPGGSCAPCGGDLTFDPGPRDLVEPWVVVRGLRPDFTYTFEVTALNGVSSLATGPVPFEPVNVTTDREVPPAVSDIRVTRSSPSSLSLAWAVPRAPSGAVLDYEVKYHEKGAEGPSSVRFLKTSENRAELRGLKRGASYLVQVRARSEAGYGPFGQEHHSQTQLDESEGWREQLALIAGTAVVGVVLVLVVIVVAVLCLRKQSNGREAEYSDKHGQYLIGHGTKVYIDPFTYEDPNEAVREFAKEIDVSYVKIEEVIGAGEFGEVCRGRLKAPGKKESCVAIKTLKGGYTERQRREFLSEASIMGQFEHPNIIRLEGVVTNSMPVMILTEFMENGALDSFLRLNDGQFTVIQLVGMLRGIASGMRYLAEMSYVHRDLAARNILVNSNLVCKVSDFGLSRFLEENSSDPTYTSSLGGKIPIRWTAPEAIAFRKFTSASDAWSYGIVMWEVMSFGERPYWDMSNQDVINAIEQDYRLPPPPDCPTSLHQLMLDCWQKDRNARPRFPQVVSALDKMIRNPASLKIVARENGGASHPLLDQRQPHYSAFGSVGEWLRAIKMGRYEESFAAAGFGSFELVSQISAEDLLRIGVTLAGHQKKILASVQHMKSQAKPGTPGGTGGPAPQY

Src = target: T6, Src (Homo sapiens, UniProt P12931); assay: Kinase inhibition assay (33P transfer), Src; details: Table 6, Src-1 kinase inhibition class
T6 construct: Kinases are expressed as either kinase domains or full length constructs; made in house
T6 sequence (P12931 whole entry, species assumed, the tested form may be a part): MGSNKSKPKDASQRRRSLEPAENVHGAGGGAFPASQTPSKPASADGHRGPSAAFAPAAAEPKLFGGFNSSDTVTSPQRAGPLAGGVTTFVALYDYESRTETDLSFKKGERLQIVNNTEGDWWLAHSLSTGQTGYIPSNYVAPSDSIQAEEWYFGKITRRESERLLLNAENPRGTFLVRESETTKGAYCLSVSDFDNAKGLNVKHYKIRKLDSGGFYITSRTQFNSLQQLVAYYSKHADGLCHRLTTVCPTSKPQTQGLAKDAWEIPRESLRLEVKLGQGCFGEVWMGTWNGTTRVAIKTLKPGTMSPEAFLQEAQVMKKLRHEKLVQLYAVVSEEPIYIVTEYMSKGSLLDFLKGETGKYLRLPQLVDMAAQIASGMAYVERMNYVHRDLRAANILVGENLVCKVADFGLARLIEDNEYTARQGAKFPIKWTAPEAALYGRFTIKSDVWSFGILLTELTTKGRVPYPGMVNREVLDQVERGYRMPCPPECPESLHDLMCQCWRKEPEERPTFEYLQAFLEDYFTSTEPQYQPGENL
In short: as §2

Hck-1 = target: T7, Hck-1 (Homo sapiens, UniProt P08631); assay: Kinase inhibition assay (33P transfer), Hck; details: Table 6, Hck-1 kinase inhibition class
T7 construct: Kinases are expressed as either kinase domains or full length constructs; made in house
T7 sequence (P08631 whole entry, the tested form may be a part): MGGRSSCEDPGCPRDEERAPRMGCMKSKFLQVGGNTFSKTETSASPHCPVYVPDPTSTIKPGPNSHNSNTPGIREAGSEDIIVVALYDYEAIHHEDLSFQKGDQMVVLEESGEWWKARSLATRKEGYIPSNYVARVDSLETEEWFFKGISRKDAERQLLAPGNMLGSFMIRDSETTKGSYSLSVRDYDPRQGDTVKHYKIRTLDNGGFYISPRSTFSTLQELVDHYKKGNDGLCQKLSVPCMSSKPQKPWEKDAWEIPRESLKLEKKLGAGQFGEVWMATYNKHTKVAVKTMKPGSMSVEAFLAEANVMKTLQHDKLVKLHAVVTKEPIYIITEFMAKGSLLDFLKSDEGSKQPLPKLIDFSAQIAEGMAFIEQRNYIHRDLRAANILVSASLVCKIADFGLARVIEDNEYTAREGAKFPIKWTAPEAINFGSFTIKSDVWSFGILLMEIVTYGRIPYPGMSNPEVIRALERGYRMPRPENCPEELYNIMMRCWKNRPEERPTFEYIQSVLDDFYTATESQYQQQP

Work on `COc1ccccc1Nc1ncnc(Nc2cc(OC)c(OC)c(OC)c2)n1` [Compound 90] yielded a pIC50 (Zap-70) of under 4.93, a pIC50 (Lyn) of over 5.98 and a pIC50 (Flt-1) of 5.20 to 5.98. The pIC50 (Kdr) was over 5.98, the pIC50 (EPHB4) was 5.20 to 5.98 and the pIC50 (Src) was 5.20 to 5.98. The pIC50 (Hck-1) was 5.20 to 5.98.
`COc1cc(Nc2ncnc(Nc3ccc(Br)cc3)n2)cc(OC)c1OC` [Compound 82] showed a pIC50 (Zap-70) of under 4.98, a pIC50 (Flt-1) of over 6.03 and a pIC50 (Kdr) of over 6.03. The pIC50 (EPHB4) was 5.26 to 6.03.
For `COc1cc(Nc2ncnc(Nc3cc(OC)c(OC)c(OC)c3)n2)cc(OC)c1OC` [Compound 76], the pIC50 (Zap-70) was under 4.99, the pIC50 (Lyn) was 5.27 to 6.04 and the pIC50 (Kdr) was 5.27 to 6.04. The pIC50 (EPHB4) was 5.27 to 6.04, the pIC50 (Src) was over 6.04 and the pIC50 (Hck-1) was under 4.99.
`COc1cc(Nc2ncnc(Nc3ccc(C(N)=O)cc3)n2)cc(OC)c1OC` [Compound 33] gave a pIC50 (Zap-70) of under 4.94, a pIC50 (Lyn) of 5.22 to 6.00 and a pIC50 (Flt-1) of under 4.94. The pIC50 (Kdr) was 5.22 to 6.00, the pIC50 (EPHB4) was under 4.94 and the pIC50 (Src) was 5.22 to 6.00. It also gave a pIC50 (Hck-1) of under 4.94.
For `COc1cc(Nc2ncnc(Nc3ccc(C(C)C)cc3)n2)cc(OC)c1OC` [Compound 66], the pIC50 (Zap-70) was 5.05 to 5.22, the pIC50 (Lyn) was 5.22 to 6.00 and the pIC50 (Flt-1) was under 4.94. It also gave a pIC50 (Kdr) of 5.22 to 6.00, a pIC50 (EPHB4) of 4.94 to 5.05 and a pIC50 (Src) of over 6.00. For the same compound, the pIC50 (Hck-1) was under 4.94.
`COc1cc(Nc2ncnc(Nc3ccc(N(C)C)cc3)n2)cc(OC)c1OC` [Compound 27] was tested, and the pIC50 (Zap-70) was under 4.94, the pIC50 (Lyn) was 5.22 to 6.00 and the pIC50 (Flt-1) was over 6.00. It also gave a pIC50 (Kdr) of over 6.00, a pIC50 (EPHB4) of under 4.94 and a pIC50 (Src) of 5.22 to 6.00. The pIC50 (Hck-1) was under 4.94.
In the case of `COc1cc(Nc2ncnc(Nc3cc(C)[nH]n3)n2)cc(OC)c1OC` [Compound 88], the pIC50 (Zap-70) was under 4.90, the pIC50 (Lyn) was 5.17 to 5.95 and the pIC50 (Kdr) was over 5.95. The pIC50 (EPHB4) was 5.17 to 5.95, the pIC50 (Src) was 5.17 to 5.95 and the pIC50 (Hck-1) was 4.90 to 5.01.
Work on `COc1cc(Nc2ncnc(Nc3cnc4ccccc4c3)n2)cc(OC)c1OC` [Compound 99] yielded a pIC50 (Zap-70) of under 4.95, a pIC50 (Lyn) of 4.95 to 5.06 and a pIC50 (Flt-1) of 5.23 to 6.00. For the same compound, the pIC50 (Kdr) was over 6.00, the pIC50 (EPHB4) was over 6.00 and the pIC50 (Src) was 5.23 to 6.00. For the same compound, the pIC50 (Hck-1) was 4.95 to 5.06.
For `COc1cc(Nc2ncnc(Nc3ccccc3C)n2)cc(OC)c1OC` [Compound 67], the pIC50 (Zap-70) was under 4.91, the pIC50 (Lyn) was over 5.96 and the pIC50 (Flt-1) was 4.91 to 5.02. It also gave a pIC50 (Kdr) of 5.18 to 5.96, a pIC50 (EPHB4) of 5.02 to 5.18 and a pIC50 (Src) of 5.18 to 5.96. The pIC50 (Hck-1) was under 4.91.
`COc1cc(Nc2ncnc(Nc3ccc(N4CCOCC4)cc3)n2)cc(OC)c1OC` [Compound 101] was tested, and the pIC50 (Zap-70) was under 4.99, the pIC50 (Lyn) was 5.10 to 5.26 and the pIC50 (Kdr) was 5.26 to 6.04. It also gave a pIC50 (EPHB4) of under 4.99, a pIC50 (Src) of 5.26 to 6.04 and a pIC50 (Hck-1) of under 4.99.
`COC(=O)c1cccc(Nc2nc3ccccc3n2-c2ncnc(Nc3cc(OC)c(OC)c(OC)c3)n2)c1` [Compound 383] gave a pIC50 (Zap-70) of under 5.07, a pIC50 (Kdr) of 5.34 to 6.12 and a pIC50 (EPHB4) of under 5.07.
`COc1cccc(-c2ncnc(Nc3cc(OC)c(OC)c(OC)c3)n2)c1` [Compound 232] was tested, and the pIC50 (Zap-70) was under 4.91, the pIC50 (Lyn) was under 4.91 and the pIC50 (Kdr) was 5.19 to 5.96. It also gave a pIC50 (EPHB4) of under 4.91, a pIC50 (Src) of under 4.91 and a pIC50 (Hck-1) of under 4.91.
`COc1cc(Nc2ncnc(Nc3ccc(O)cc3Cl)n2)cc(OC)c1OC` [Compound 77] was tested, and the pIC50 (Zap-70) was under 4.95, the pIC50 (Lyn) was over 6.00 and the pIC50 (Flt-1) was 5.23 to 6.00. For the same compound, the pIC50 (Kdr) was over 6.00, the pIC50 (EPHB4) was 5.23 to 6.00 and the pIC50 (Src) was 5.23 to 6.00. It also gave a pIC50 (Hck-1) of under 4.95.
With `COc1cc(Nc2ncnc(Nc3ccc4c(c3)Cc3ccccc3-4)n2)cc(OC)c1OC` [Compound 95] the pIC50 (Zap-70) was 4.99 to 5.10, the pIC50 (Lyn) was 5.10 to 5.26 and the pIC50 (Kdr) was 5.26 to 6.04. It also gave a pIC50 (EPHB4) of 4.99 to 5.10, a pIC50 (Src) of under 4.99 and a pIC50 (Hck-1) of under 4.99.
Compound `COc1cc(Nc2ncnc(Nc3ccccc3)n2)cc(OC)c1OC` [Compound 91] has a pIC50 (Zap-70) of under 4.90, a pIC50 (Lyn) of 5.17 to 5.95 and a pIC50 (Flt-1) of over 5.95. It also gave a pIC50 (Kdr) of 5.17 to 5.95, a pIC50 (EPHB4) of 5.00 to 5.17 and a pIC50 (Src) of 5.17 to 5.95. It also gave a pIC50 (Hck-1) of under 4.90.
`COc1ccc(Nc2ncnc(Nc3cc(OC)c(OC)c(OC)c3)n2)cc1` [Compound 89] showed a pIC50 (Zap-70) of under 4.93, a pIC50 (Lyn) of 5.20 to 5.98 and a pIC50 (Flt-1) of over 5.98. It also gave a pIC50 (Kdr) of over 5.98, a pIC50 (EPHB4) of under 4.93 and a pIC50 (Src) of 5.04 to 5.20. For the same compound, the pIC50 (Hck-1) was under 4.93.
